Measurements reported in ChEMBL document CHEMBL3421554, “Discovery of HCV NS5B thumb site I inhibitors: core-refining from benzimidazole to indole scaffold” (Eur J Med Chem, 2015).
≈ marks a conversion by molar mass, not a printed value. Values belong to the compound of their own block, whether it stands above or below them.

Legend:
[1] = tested on: Hepatitis C virus; assay: Antiviral activity against HCV assessed as inhibition of viral replication by cell-based assay; type: functional, organism-based, Hepacivirus hominis
[2] = Inhibition of N-terminal hexa-histidine tagged HCV NS5B expressed in baculovirus infected insect cells using 12 nucleotide RNA oligo-uridylate primer and complementary poly-adenylate template assessed as incorporation of UMP-[5,6-3H] into the chain elongated from oligo-U primer by TopCount analysis; set-up: species or system Hepacivirus hominis
[3] = Inhibition of N-terminally tagged full-length HCV NS5B using biotinylated oligo(rU12), poly(rA) as template-primer assessed as incorporation of [3H]-UTP after 90 mins by Scintillation Proximity Assay; set-up: species or system Hepacivirus hominis
[4] = Inhibition of N-terminal hexa-histidine tagged full-length HCV genotype 1b NS5B expressed in baculovirus-infected cells using 5'-biotinylated oligo(rU12), poly(rA) as template-primer assessed as incorporation of [3H]-UTP after 90 mins by Scintillation Proximity Assay; set-up: species or system Hepatitis C virus subtype 1b
[5] = target: Genome polyprotein (Hepatitis C virus genotype 1b (isolate BK) (HCV), UniProt P26663); assay: Inhibition of HCV genotype 1b BK NS5B expressed in Escherichia coli BL21 (DE3) after 1 hr
Sequence of Genome polyprotein (P26663 2420-3010 limits assumed): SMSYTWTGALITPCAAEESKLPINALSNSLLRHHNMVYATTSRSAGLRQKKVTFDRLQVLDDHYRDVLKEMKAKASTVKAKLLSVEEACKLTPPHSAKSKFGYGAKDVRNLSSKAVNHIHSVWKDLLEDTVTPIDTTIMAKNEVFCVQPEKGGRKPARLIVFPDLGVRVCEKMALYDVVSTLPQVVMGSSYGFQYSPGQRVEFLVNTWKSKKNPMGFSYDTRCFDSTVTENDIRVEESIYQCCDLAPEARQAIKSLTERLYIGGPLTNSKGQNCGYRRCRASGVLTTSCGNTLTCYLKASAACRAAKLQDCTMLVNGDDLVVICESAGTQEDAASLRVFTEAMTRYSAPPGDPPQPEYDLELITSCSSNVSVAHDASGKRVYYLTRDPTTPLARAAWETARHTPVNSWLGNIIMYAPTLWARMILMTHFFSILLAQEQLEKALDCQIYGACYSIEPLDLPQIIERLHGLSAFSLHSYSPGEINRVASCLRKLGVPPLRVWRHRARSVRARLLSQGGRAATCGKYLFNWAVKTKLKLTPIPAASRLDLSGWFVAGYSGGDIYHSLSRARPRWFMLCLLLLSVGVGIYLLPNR

[6] = tested on: Hepatitis C virus; assay: Antiviral activity against HCV genotype 1b Con1 infected in human HuH7 cells assessed as inhibition of viral replication; type: functional, cell-based, Hepacivirus hominis; settings: genotype 1b Con1, Huh-7
[7] = tested on: Hepatitis C virus; assay: Antiviral activity against HCV infected in human HuH7 cells assessed as inhibition of viral replication after 72 hrs by RT-PCR analysis; type: functional, organism-based, Hepacivirus hominis; settings: Huh-7, 72 h
[8] = Solubility of the compound in phosphate buffer at pH 7.2; type: physicochemical
[9] = Octanol-buffer distribution co-efficient, log D of the compound at pH 7.4 by shaking-flask method; type: physicochemical

Compound: O=C(O)c1ccc2c(C3CCCCC3)c(-c3ccccc3)n(CC(=O)N3CCOCC3)c2c1
EC50 [1]: 800 nM

Compound: O=C(O)c1ccc2c(c1)nc(-c1ccoc1)n2C1CCCCC1
IC50 [2]: 1.6 µM

Compound: O=C(O)COc1ccc2[nH]cc(C[C@H](NC(=O)c3ccc4c(c3)nc(-c3ccoc3)n4C3CCCCC3)C(=O)O)c2c1
IC50 [3]: 27 nM

Compound: CC(C)N1CCC(N(C)C(=O)Cn2c(-c3ccccc3)c(C3CCCCC3)c3sc(C(=O)O)cc32)C1 (centres undefined)
IC50 [5]: 10 nM
EC50 [6]: 130 nM

Compound: O=C(N[C@H](Cc1c[nH]c2ccc(O)cc12)c1cscn1)c1ccc2c(c1)nc(-c1ccoc1)n2C1CCCCC1
EC50 [7]: 1.7 µM
IC50 [3]: 300 nM

Compound: CC(C)N1CC[C@@H](N2CCn3c(c(C4CCCCC4)c4sc(C(=O)O)cc43)-c3ccccc3C2)C1
IC50 [5]: 19 nM
EC50 [6]: 150 nM

Compound: O=C(O)/C=C/c1ccc(NC(=O)C2(NC(=O)c3ccc4c(c3)nc(-c3ccoc3)n4C3CCCCC3)CCCC2)cc1
EC50 [1]: 550 nM

Compound: COc1ccc(CCNC(=O)c2ccc3c(c2)nc(-c2ccccn2)n3C2CCCCC2)cc1OC
IC50 [2]: 12 µM

The remaining lines, values ahead:

IC50 [4]: 40 nM
Compound: CC(C)(NC(=O)c1ccc2c(c1)nc(-c1ccoc1)n2C1CCCCC1)C(=O)Nc1ccc(/C=C/C(=O)O)cc1

IC50 [5]: 58 nM
Compound: CN(C)C(=O)Cn1c(-c2ccccc2)c(C2CCCCC2)c2sc(C(=O)O)cc21

IC50 [5]: 11 nM
EC50 [6]: 510 nM
Compound: CC(C)CNCc1c(C(=O)O)sc2c(C3CCCCC3)c(-c3ccccc3)n(CC(=O)N(C)C3CCN(C(C)C)C3)c12 (centres undefined)

solubility [8]: 171 µM (≈ 90 µg/mL)
EC50 [7]: 6.9 µM
IC50 [3]: 130 nM
logD [9]: 2.2
Compound: C[C@@H](NC(=O)c1ccc2c(c1)nc(-c1ccoc1)n2C1CCCCC1)C(=O)Nc1ccc(/C=C/C(=O)O)cc1
